Reference: patent publication US11021442B2, “Process for the preparation of freeze-dried 2-[(3-aminopropyl)amino] ethanethiol formulation” (CLEVEXEL PHARMA, priority 2016, dated 2021)

Columns and labels:
[1] = test system: radiation-induced oral mucositis; test: Efficacy study, radiation-induced oral mucositis, 20 Gy single fraction (Example F-2); format: in vivo, C57BL/6 mice
Experimental: Female C57BL/6 mice (12 weeks old) purchased from Janvier CERT (Le Genest St. Isle, France) were used after an acclimation time of 7 days. They had free access to food (SAFE reference R0340, Augy, France) and water. They were housed on a 12 hours light/dark cycle at a room temperature of 22° C.±2° C. and a relative humidity of 55%±15%.
Irradiation was carried out locally with a X-ray Varian NDI 226 tube (200 kV, 15 mA, 0.2 mm Cu) at a dose rate of 1.33 Gy/min, the rest of the body being protected by a lead shield. Mice were euthanized when body weight loss exceeded 20% of the initial weight for more than 24 hours or in case of severe clinical signs (ethical endpoints). […]
Two parameters were monitored: the body weight and the Parkins score. This represents an arbitrary score system devised by Parkins and co-workers with separate scores for edema and erythema evaluated by macroscopic observation (Parkins, C. S., Fowler, J. F., and Yu, S. (1983). A murine model of lip epidermal/mucosal reactions to X-irradiation. Radiotherapy and oncology: Journal of the European Society for Therapeutic Radiology and Oncology 1, 159-165). […]
The Parkins score is calculated as follows: “Parkins score”=edema score+erythema score.
A single dose irradiation was delivered to the snout of mice. This induced a mucosal/epidermal lip reaction that was monitored through macroscopic observation and scoring. […]

[2] = test system: radiation-induced oral mucositis; test: Second efficacy study, radiation-induced oral mucositis, 18 Gy single fraction (Example F-4); format: in vivo, mice
Experimental: The experiment was conducted with gels containing 20, 40 or 80 mg/ml Amifostine (corresponding to 12.5, 25 or 50 mg/ml amifostine thiol respectively). A lower dose of irradiation (a single fraction irradiation of 18 Gy) was delivered to the snout, so that all the mice could be kept alive until the end of the experiment. Different amounts of compound were administered to mice (1; 2 or 4 mg per mouse).
The same experimental procedure as for in example F-2 was used. Briefly, mice were anesthetized, Amifostine or Amifostine thiol was delivered 10 minutes later or not depending on the group (gel application or intravenous injection), mice were irradiated dorsally at an 18 Gy dose 30 minutes after the administration of Amifostine or Amifostine thiol and awakened 20 minutes later.
[…] were allocated to 6 groups: • Control (n=6 mice); • Placebo gel (n=6 mice); • Amifostine thiol 20 mg/ml gel (1 mg amifostine/mouse, n=6 mice); • Amifostine thiol 40 mg/ml gel (2 mg amifostine/mouse, n=6 mice); • Amifostine thiol 80 mg/ml gel (4 mg amifostine/mouse, n=6 mice); and • Amifostine intravenous (IV) (20 mg/ml) (4 mg amifostine/mouse, n=5 mice).
For each group, the development of oral mucositis was evaluated on 5 or 6 mice depending on the group. An 18 Gy dose irradiation induced a less severe phenotype than the 20 Gy dose irradiation that was used in the first efficacy experiment.

[3] = test system: radiation-induced oral mucositis; test: Third efficacy study, radiation-induced oral mucositis, four fractions of 8 Gy (Example F-6); format: in vivo, mice
Text: Four fractions of 8 Gy were delivered for four consecutive days (everyday from day 0 to day 3; day 0 corresponding to the first day of treatment) to the snout. The fractionation scheme of four fractions of 8 Gy was chosen, because it is biologically equivalent to 1 fraction of 18 Gy (Biologically Effective Dose: BED 120 Gy). […] Thus, the compound was applied 4 times for four consecutive days. For each day, a similar experimental procedure as for in example F-2 was used. […] The same experimental procedure was repeated for 4 consecutive days.

[4] = Stability of lyophilized powder of aminothiol (WR-1065) at 25° C./60% RH under argon; format: physicochemical
Experimental: A stability study is performed to compare stability of: • WR-1065 obtained by conversion of amifostine (350 mg/ml or 500 mg/ml) in acidic condition (respectively HCl 1M or HCl 4M), diluted in water or in P407/P188 mixture and then lyophilized (based on examples described in parts A & B), and • WR-1065 hydrochloride salt crystalline powder.
Stability is assessed by analysis of samples stored under argon atmosphere at 25° C./60% RH. The aim of argon is to provide two materials under same stability condition.

[5] = T1m-25° C./60% RH, under argon atm.
[6] = T15d-25° C./60% RH, under argon atm.

Structure (SMILES)	effect on development and intensity of mucositis (Parkins score), in words ([1]; 20 Gy single fraction to snout, 4 mg amifostine/mouse 30 minutes before irradiation, thiol gel = Gel n°1, Amifostine gel = Gel n°2)	day after irradiation at which edema and erythema completely disappeared ([1]; 20 Gy single fraction, 4 mg amifostine/mouse IV) [days]	effect on mucositis peak and healing period, in words [2]	day of acute peak of mucosal reaction ([2]; IV 4 mg amifostine/mouse) [days]	Parkins score at the peak of mucosal reaction ([2]; gels 1, 2 or 4 mg amifostine/mouse, IV 4 mg/mouse, 30 minutes before irradiation)	day of acute peak of mucosal reaction ([3]; IV 2 mg amifostine/mouse) [days]	Parkins score at the peak of mucosal reaction ([3]; day 0 to day 3, 2 mg amifostine per mouse before each fraction, thiol gel = Gel n°9)	Amifostine ([4]; T0, under argon atm.) [%]	Aminothiol ([4]; T0, under argon atm.) [%]	Disulfides ([4]; T0, under argon atm.) [%]	Unknow ([4]; T0, under argon atm.)	Amifostine [4, 5] [%]	Aminothiol [4, 5] [%]	Disulfides [4, 5] [%]	Unknow [4, 5] [%]	Amifostine [4, 6] [%]	Aminothiol [4, 6] [%]	Disulfides [4, 6] [%]	Unknow [4, 6]
NCCCNCCSP(=O)(O)O [Amifostine IV, Amifostine]	mucosal reaction of moderate intensity	20	healing period was nearly absent	12	2.2	~15	2.6	–	–	–	–	–	–	–	–	–	–	–	–
NCCCNCCS [WR-1065•2HCl native, 2-[(3-aminopropyl)amino]ethanethiol]	–	–	–	–	–	–	–	0	99.7	0.3	<LOQ	0	99.3	0.5	0.2	0	99.6	0.4	<LOQ
